Columns and labels:
Format in all cases: in vivo
houseflies [1] = assay: Knockdown activity against houseflies; conditions: female houseflies 4 days old, sprayed in Kearns and March chamber, 0.25 g/liter, 5% acetone and 95% Isopar L
Procedure: Female houseflies 4 days old were sprayed in a Kearns and March chamber at 2 ml per second with a solution of 5% of acetone and 95% of Isopar L with 50 insects being used for each dose at a concentration of 0.25 g/liter and readings were taken every 30 seconds for 10 minutes and after 15 minutes to determine the KT50 by the usual method.

[2] = system: larvae of Acanthocelides obtectus; assay: Lethal activity against Acanthocelides obtectus; conditions: Test D repeated
beetles = assay: Lethal activity against beetles (contact with film on glass); conditions: contact with film on glass from acetone solutions
From the text: The tests were effected by contact with a film on glass deposited by pipette of acetone solutions of different concentrations on the bottom of a glass Petrie dish with sides previously coated with talc to avoid loss of insects.

houseflies [3] = assay: Lethal activity against houseflies (topical application); conditions: female houseflies 4 to 5 days old, topical 1 μl acetone solution on dorsal thorax, dead counted 24 hours later
Procedure: 50 female houseflies 4 to 5 days old per treatment received a topical application of 1 μl of an acetone solution of the test compound on the dorsal thorax with an Arnold micromanipulator and the number of dead flies was determined 24 hours later. The DL50 or dose in nanograms per fly necessary to kill 50% of the insects were determined and the results are reported in Table II.

[4] = system: larvae of Spodoptera littoralis; assay: Lethal effect against Spodoptera larvae (topical application); conditions: Spodoptera littoralis larvae 4th stage, topical 1 μl acetone solution, dead counted 48 hours later
Procedure: 1 μl of acetone solution of the test compound was applied with an Arnold micromanipulator to the dorsal thorax of 15 larvae of Spodoptera littoralis in the 4th stage of development which are about 10 days old at 24° C. and 65% relative humidity. After treatment, the larvae were placed on an artificial nutritive media and the number of dead was determined 48 hours later.

Structure (SMILES) | KT50 (houseflies [1]) [min] | DL50 in ng per insect [2] [ng per insect] | CL50 in mg/m^2 (beetles) [mg/m^2] | DL50 namograms per insects (houseflies [3]) [namograms per insects] | DL50 ng per insect [4] [ng per insect]
CC1(C)[C@H](C(=O)O[C@H](C#N)c2ccc(F)c(Oc3ccccc3)c2)[C@@H]1C=C1CCC1 [Example 16, (S) cyano-(4-fluoro-3-phenoxy-phenyl)-methyl (1R,cis) 2,2-dimethyl-3-cyclobutylidenemethyl-cyclopropane-1-carboxylate] | 2.89 | 12.3 | 0.018 | 0.639 | 4.5
CC1(C)[C@H](C=C(F)F)[C@H]1C(=O)O[C@H](C#N)c1ccc(F)c(Oc2ccccc2)c1 [Example 6] | 1.6 | 7.1 | 0.126 | 8.9 | 3.4
CC1(C)[C@H](C=C2CC2)[C@H]1C(=O)O[C@H](C#N)c1ccc(F)c(Oc2ccccc2)c1 [Example 15, (S) cyano-(3-phenoxy-4-fluoro-phenyl)-methyl (1R,trans) 2,2-dimethyl-3-cyclopropylidene-methyl-cyclopropane-1-carboxylate] | 2.85 | 31.2 | 0.137 | 2.04 | 4.6
CC1(C)C(C(=O)O[C@H](C#N)c2ccc(F)c(Oc3ccccc3)c2)C1(C)C [Example 1, (S) cyano-(4-fluoro-3-phenoxy-phenyl)-methyl 2,2,3,3-tetramethyl-cyclopropane-1-carboxylate] | 2.0 | 8.12 | 0.22 | 5.3 | 8.4
CC1(C)[C@H](C(=O)O[C@H](C#N)c2ccc(F)c(Oc3ccccc3)c2)[C@@H]1C=C1CCSC1=O [Example 11, (S) cyano-(4-fluoro-3-phenoxy-phenyl)-methyl (1R,cis) 2,2-dimethyl-3-[(dihydro-2-oxo-3-(2H)-thienylidene)-methyl]-cyclopropane-1-carboxylate] | 3.5 | 50.6 | – | 21.3 | 8.2
CC1(C)[C@H](C(=O)O[C@H](C#N)c2ccc(F)c(Oc3ccccc3)c2)[C@@H]1C=C(F)F [Example 7, (S) cyano-(4-fluoro-3-phenoxy-phenyl)-methyl (1R,cis) 2,2-dimethyl-3-[2,2-difluoroethenyl]-cyclopropane-1-carboxylate] | 1.7 | 7.4 | 0.029 | 1.9 | 2.2
CC1(C)[C@H](C(=O)O[C@H](C#N)c2ccc(F)c(Oc3ccccc3)c2)[C@@H]1C=C1CCCC1 [Example 9, (S) cyano-(4-fluoro-3-phenoxy-phenyl)-methyl (1R,cis) 2,2-dimethyl-3-cyclopentylidenemethyl-cyclopropane-1-carboxylate] | 4.4 | 8.6 | 0.083 | 0.87 | 5.1
CC1(C)[C@H](C(=O)O[C@H](C#N)c2ccc(F)c(Oc3ccccc3)c2)[C@@H]1C(Br)C(Br)(Br)Br (stereo partly drawn) [Example 5, (S) cyano-(4-fluoro-3-phenoxy-phenyl)-methyl (1R,cis) 2,2-dimethyl-3-[1,(R,S) 2,2,2-tetrabromoethyl]-cyclopropane-1-carboxylate] | 4.8 | 16.1 | 0.037 | 0.58 | 1.6
CC1(C)[C@H](C=C2CCC2)[C@H]1C(=O)O[C@H](C#N)c1ccc(F)c(Oc2ccccc2)c1 [Example 13, (S) cyano-(4-fluoro-3-phenoxy-phenyl)-methyl (1R,trans) 2,2-dimethyl-3-cyclobutylidene-methyl-cyclopropane-1-carboxylate] | 2.74 | 17.9 | 0.029 | 0.97 | 5.8
CC1(C)[C@H](C(=O)O[C@H](C#N)c2ccc(F)c(Oc3ccccc3)c2)[C@@H]1C=C1CC1 [Example 14, (S) cyano-(4-fluoro-3-phenoxy-phenyl)-methyl (1R,cis) 2,2-dimethyl-3-cyclopropylidene-methyl-cyclopropane-1-carboxylate] | 3.13 | 22.7 | 0.049 | 1.44 | 4.25
CC1(C)[C@H](C(=O)O[C@H](C#N)c2ccc(F)c(Oc3ccccc3)c2)[C@@H]1C(Br)C(Cl)(Cl)Br (stereo partly drawn) [Example 3, (S) cyano-(4-fluoro-3-phenoxy-phenyl)-methyl (1R,cis) 2,2-dimethyl-3-[1(R,S) 2-dibromo-2,2-dichlor-ethyl]-cyclopropane-1-carboxylate] | 2.9 | 7.7 | 0.021 | 1.02 | 1.4
CC1(C)[C@H](C=C2CCSC2=O)[C@H]1C(=O)O[C@H](C#N)c1ccc(F)c(Oc2ccccc2)c1 [Example 10, (S) cyano-(4-fluoro-3-phenoxy-phenyl)-methyl (1R,trans) 2,2-dimethyl-3-[(dihydro-2-oxo-3-(2H)-thienylidene)-methyl]-cyclopropane-1-carboxylate] | 3.5 | – | – | – | –
CC1(C)[C@H](C(=O)O[C@H](C#N)c2ccc(F)c(Oc3ccccc3)c2)[C@H]1C(Br)C(Br)(Br)Br (stereo partly drawn) [Example 4, (S) cyano-(4-fluoro-3-phenoxy-phenyl)-methyl (1R,trans) 2,2-dimethyl-3-[1(R,S)2,2,2-tetrabromoethyl]-cyclopropane-1-carboxylate] | 2.0 | 6.7 | 0.074 | 1.04 | 6.5
CC(C)[C@H](C(=O)O[C@H](C#N)c1ccc(F)c(Oc2ccccc2)c1)c1ccc(OC(F)F)cc1 [Example 12, (S) cyano (4-fluoro-3-phenoxy-phenyl)-methyl 2 (S)-[p-difluoromethoxy-phenyl]-3-methyl-butyrate] | 3.6 | 22.2 | 0.23 | 4.9 | 44.3
CC1(C)[C@H](C=C2CCCC2)[C@H]1C(=O)O[C@H](C#N)c1ccc(F)c(Oc2ccccc2)c1 [Example 8, (S) cyano-(4-fluoro-3-phenoxy-phenyl)-methyl (1R,trans) 2,2-dimethyl-3-cyclopentylidenemethyl-cyclopropane-1-carboxylate] | 6.1 | 20.1 | 0.054 | 0.98 | 14.9
CC1(C)[C@H](C(=O)O[C@H](C#N)c2ccc(F)c(Oc3ccccc3)c2)[C@H]1C(Br)C(Cl)(Cl)Br (mixture of isomers) [Example 2, (S) cyano-(4-fluoro-3-phenoxy-phenyl)-methyl (1R,trans) 2,2-dimethyl-3-[1 (R,S), 2-dibromo-2,2-dichloroethyl]-cyclopropane-1-carboxylate] | 2.8 | 10.9 | 0.084 | 1.14 | 6.2

Reference: US4463014A, “Cyclopropane carboxylates” (Uclaf; Roussel, priority 1981, dated 1984)
